According to patent US20160108004A1, “TREATMENT OR PREVENTION OF NEURODEGENERATIVE DISORDERS USING MENTHOL, LINALOOL AND/OR ICILIN” (NESTEC S.A., priority 2013, published 2016):

What was measured:
[1] = tested on: Lateral Amygdala glutamatergic neuron; assay: whole cell, current clamp recordings in a Lateral Amygdala glutamatergic neuron (mouse brain slice); format: cell-based; settings: for inactivation of the sodium fast channels relative to control: square pulse of 2.5 s at high depolarization of membrane potential (approximately −30 mV), FIG. 2
Description: (§1) A mouse brain slice was used to study the effects of Menthol, Linalool and Icilin. The amygdaloid complex is located within the medial temporal lobe in neocortex and amygdala. The lateral and basolateral nuclei of the amygdaloid complex receive sensory information from cortical and thalamic structures, process the information, and then transmit the information, either directly or through the basal nucleus, to the central nucleus. For experimental analysis of neural activity, synaptic responses from the basolateral complex can be evoked electrically using electrodes, and the action potentials can be measured.
A square pulse of 2.5 s was applied at high depolarization of membrane potential (approximately −30 mV).

[2] = tested on: Lateral Amygdala glutamatergic neuron; assay: whole cell, current clamp recordings with increasing concentration of gabazine (spontaneous action potential bursts); format: cell-based, mouse
Description: as §1

Row | Compound | amount of current required to trigger an action potential [1] | threshold to trigger an action potential [1] | action potentials at higher stimulation levels [1] | inactivation of the sodium fast channels relative to control [1] | spontaneous action potential bursts ([2]; increasing concentrations of gabazine applied extracellularly, recordings of 5 min each, washout 10 min, FIG. 3) | spontaneous bursts in the presence of gabazine ([2]; Menthol 250 μM applied extracellularly 10 minutes previous to and during exposure to increasing concentrations of gabazine, FIG. 5 compared to FIG. 3)
1 | O=C1NC(c2cccc([N+](=O)[O-])c2)=CCN1c1ccccc1O [Icilin] | increase the amount of current required to trigger an action potential | increase the threshold to trigger an action potential | abort action potentials at higher stimulation levels | inactivation of the sodium fast channels happens sooner relative to control |  | 
2 | C=CC(C)(O)CCC=C(C)C (centres unmarked) [Linalool] | increase the amount of current required to trigger an action potential | increase the threshold to trigger an action potential | abort action potentials at higher stimulation levels | inactivation of the sodium fast channels happens sooner relative to control |  | 
3 | COc1ccc(-c2ccc(=N)n(CCCC(=O)O)n2)cc1 [gabazine, reference compound] |  |  |  |  | neurons spontaneously present action potential bursts | 
4 | CC1CCC(C(C)C)C(O)C1 (centres unmarked) [Menthol] | increase the amount of current required to trigger an action potential | increase the threshold to trigger an action potential | abort action potentials at higher stimulation levels | inactivation of the sodium fast channels happens sooner relative to control |  | complete absence or a strongly decreased presence of spontaneous bursts
